74 compounds from PubChem BioAssay AID1996 can be followed below.

In brackets after ≈: the same amount, converted by molar mass. Non-standard residues stand in square brackets, D forms with d. Residues, ends and D or L forms follow the SMILES beside them. pGlu = O=C1CC[C@@H](C(=O)O)N1; Thz = O=C(O)[C@@H]1CSCN1

The conditions of the data set: buffer; pH 7.4; 200.0 µM.
In general, solubility (kinetic) refers to solubility judged after dilution from a stock solution rather than from solid. In turn, `O=[N+]([O-])/C=C1/CCCCCN1` yielded a solubility (kinetic) greater than 23.4 µg/mL.

As to `COc1ccccc1NS(=O)(=O)c1ccc2oc(N)nc2c1`, the kinetic solubility is greater than 47.9 µg/mL.

Regarding `COc1ccc(CNC(=O)COC(=O)c2ccc(C)c(S(=O)(=O)N3CCOCC3)c2)cc1`, the solubility (kinetic) came out at 7.8 µg/mL (≈ 16.9 µM).

Take `COCc1cc(=O)[nH]c(/N=C(\N)Nc2ccc(Cl)c(Cl)c2)n1`: the kinetic solubility is 0.2 µg/mL (≈ 0.584 µM).

`CCC(=O)c1ccc(OCC(=O)OCC(=O)NCC2CCCO2)cc1` (centres undefined) returned a solubility (kinetic) of 49.5 µg/mL (≈ 142 µM).

As for `Fc1ccc(NCc2nnc3n2CCCCC3)cc1`, the kinetic solubility was greater than 39 µg/mL.

The compound `Cc1cccc(NC(=O)CNC(=O)c2ccc3nc[nH]c3c2)c1C` displayed a solubility (kinetic) greater than 48.4 µg/mL.

`Cc1ccc(NC(=O)CNC(=O)c2cccc(Cl)c2)nc1`: the kinetic solubility was 11.7 µg/mL (≈ 38.5 µM).

As to `O=C1N(CN2CCOCC2)c2ccccc2C12OCC(CCl)O2` (centres undefined), the solubility (kinetic) is 49.6 µg/mL (≈ 146 µM).

As to `CN(C)C(=S)Nc1ccc(Br)c(Cl)c1`, the solubility (kinetic) was determined as 37 µg/mL (≈ 126 µM).

As to `COc1cc(Oc2ccccc2)nc(N)n1`, the kinetic solubility is greater than 32.6 µg/mL.

`Cc1ccccc1NC(=S)NNC(=O)c1ccncc1` had a solubility (kinetic) greater than 43 µg/mL.

Regarding `Cc1cc(C)c2c(CC(=O)O)c(C)[nH]c2c1`, the solubility (kinetic) worked out at 28.5 µg/mL (≈ 131 µM).

In turn, `CCOC(=O)C1CCN(S(=O)(=O)c2cn(C)cn2)CC1` returned a kinetic solubility greater than 45.2 µg/mL.

`O=C(N/N=C/c1ccncc1)NC1CCCCC1` registered a kinetic solubility greater than 36.9 µg/mL.

The compound `COc1ccc(S(=O)(=O)N2CCOCC2)cc1NC(=O)COC(=O)Cc1ccccc1` came in with a kinetic solubility of 51.7 µg/mL (≈ 115 µM).

Take `CCN1CCN(c2nc(N(C)c3ccccc3)nc(N)c2[N+](=O)[O-])CC1`: the kinetic solubility worked out at 49.3 µg/mL (≈ 138 µM).

In the case of `O=C1CC[C@@H](C(=O)N2CSC[C@H]2C(=O)O)N1` ([pGlu]-[Thz]-OH), the solubility (kinetic) is greater than 36.6 µg/mL.

For `Brc1ccc(-c2noc(-c3ccccc3)n2)o1`, the solubility (kinetic) is less than 0.3 µg/mL.

`CC(Cc1cccs1)NCc1ccc(Cl)cc1` (centres undefined) registered a solubility (kinetic) of 22.6 µg/mL (≈ 85 µM).

As for `CC(CCc1ccc(O)cc1)NCCC(c1ccccc1)c1ccccc1` (centres undefined), the kinetic solubility stood at 53.4 µg/mL (≈ 149 µM).

`O=C(CS(=O)c1ccc(Br)cc1)N1CCOCC1` (centres undefined) returned a solubility (kinetic) of 49.4 µg/mL (≈ 149 µM).

Regarding `O=C(CSc1nccc(=O)[nH]1)Nc1cccc2ccccc12`, the kinetic solubility was greater than 46.7 µg/mL.

`CN1CCN(C(=O)c2ccc(-c3ccccc3)cc2)CC1` yielded a solubility (kinetic) greater than 42.1 µg/mL.

Consider `O=[N+]([O-])c1ccc(Cl)c(S(=O)(=O)NCCc2ccccn2)c1`, for which the kinetic solubility is greater than 51.3 µg/mL.

With `Cc1cc(C)c(C(=O)CN2C(=O)NC3(CCCCC3)C2=O)cc1C`, the solubility (kinetic) amounted to 2 µg/mL (≈ 6.09 µM).

On to `CC(C)c1ccc(NC(=O)CNCC(c2ccccc2)N(C)C)cc1` (centres undefined), for which the solubility (kinetic) came out at 32.9 µg/mL (≈ 96.9 µM).

On to `C#CCOc1ccccc1/C=C1/C(=O)ON=C1C`, for which the kinetic solubility was 34.9 µg/mL (≈ 145 µM).

With `O=C(O)CN1C(=O)S/C(=C\c2cccnc2)C1=O`, the kinetic solubility is greater than 39.6 µg/mL.

The compound `CC1(C)CC(NC(=O)Cc2ccc(Cl)cc2)CC(C)(C)N1` returned a solubility (kinetic) greater than 46.3 µg/mL.

`COC(=O)c1ccc2[nH]c3c(c2c1)CC(C)CC3` (centres undefined): the kinetic solubility turned out to be 0.9 µg/mL (≈ 3.7 µM).

As to `CCCCn1c(N)c(N(CCOC)C(=O)CN(C)CC(=O)Nc2ccc(Cl)c(Cl)c2)c(=O)[nH]c1=O`, the kinetic solubility was greater than 79.4 µg/mL.

Compound `COc1ccc(O)c(CN2CCCC(C(=O)c3ccccc3SC)C2)c1` (centres undefined) returned a kinetic solubility of 17.7 µg/mL (≈ 47.6 µM).

`COc1ccc(C2C(C(C)=O)=C(C)Nc3ncnn32)c(OC)c1OC` (centres undefined) returned a solubility (kinetic) greater than 51.7 µg/mL.

Take `O=C(NC(=S)Nc1cccnc1)c1ccccc1`: the solubility (kinetic) amounted to 36.1 µg/mL (≈ 140 µM).

The compound `CN1CC(=O)Nc2ccc(Br)cc2C1=O` came in with a solubility (kinetic) greater than 40.4 µg/mL.

`CN1CCN(c2ccc(CNS(=O)(=O)Cc3ccc(Cl)cc3)cc2)CC1`: the kinetic solubility was 2.8 µg/mL (≈ 7.11 µM).

Consider `CCOC(=O)c1cccc(NC(=O)Nc2ccc3c(c2)C(=O)OC3)c1`, for which the kinetic solubility was less than 0.4 µg/mL.

With `Cc1ccc(C)c(CSC2=NCCN2C(=O)c2cccs2)c1`, the kinetic solubility was found to be 1 µg/mL (≈ 3.03 µM).

In the case of `COC(=O)c1cc(C(=O)NCC2CCCCC2)cc([N+](=O)[O-])c1`, the solubility (kinetic) is 33.3 µg/mL (≈ 104 µM).

With `c1ccc2c(c1)cnc1ccccc12`, the kinetic solubility amounted to 7.7 µg/mL (≈ 43 µM).

Take `CCOc1ccc(C(CC(=O)O)NC(=O)Cc2ccc(Cl)cc2)cc1` (centres undefined): the solubility (kinetic) is greater than 54.3 µg/mL.

As to `COc1ccc(S(=O)(=O)n2cnc3ccccc32)cc1.Cl`, the solubility (kinetic) is greater than 48.7 µg/mL.

Compound `CCN(CC(=O)NCc1cccs1)C(=O)c1ccc(Cl)c(Cl)c1` came in with a kinetic solubility greater than 55.7 µg/mL.

`CC1(C)CC(=O)c2c(Cc3ccccc3)noc2C1` gave a solubility (kinetic) of 33.4 µg/mL (≈ 131 µM).

Regarding `Cc1ccc(C(C)NC(=O)Cc2cccs2)c(C)c1` (centres undefined), the solubility (kinetic) stood at 34.4 µg/mL (≈ 126 µM).

`COC(=O)c1ccc(S(=O)(=O)NCc2ccccn2)n1C`: the solubility (kinetic) was 39.6 µg/mL (≈ 128 µM).

The compound `O=C1CCC([N+](=O)[O-])C(c2cccc([N+](=O)[O-])c2)N1` (centres undefined) showed a solubility (kinetic) greater than 39.8 µg/mL.

Take `O=C(COc1ccc(Cl)cc1)NCCNC(=O)c1ccccn1`: the solubility (kinetic) is 47.6 µg/mL (≈ 143 µM).

`O=C(CSc1nnc(Nc2ccccc2)s1)NC1CCS(=O)(=O)C1` (centres undefined) gave a kinetic solubility greater than 57.7 µg/mL.

`Nc1ncnc2c1ncn2Cc1ccccc1` returned a solubility (kinetic) greater than 33.8 µg/mL.

Compound `CCN(C(=O)COC(=O)CCC(=O)c1cccs1)c1ccccc1` had a kinetic solubility greater than 51.8 µg/mL.

`O=C(O)CSCC(=O)N(c1ccccc1)c1ccccc1` displayed a solubility (kinetic) of 42.9 µg/mL (≈ 142 µM).

Compound `COc1ccc(OC)c(N(CC(=O)N2CCCC2)S(C)(=O)=O)c1` returned a solubility (kinetic) greater than 51.4 µg/mL.

As for `CC(C)CCNC(=O)COc1ccc(C(=O)c2ccccc2)cc1`, the kinetic solubility was found to be 13.5 µg/mL (≈ 41.5 µM).

Compound `CN1C(=O)c2ccc(C(=O)Nc3ccc4c(c3)OCO4)cc2C1=O` came in with a solubility (kinetic) of 0.7 µg/mL (≈ 2.16 µM).

Regarding `COC(=O)CNC(=O)/C=C/c1cc(Br)ccc1OC`, the solubility (kinetic) amounted to 38.1 µg/mL (≈ 116 µM).

Turning to `O=c1oc2ccccc2n1Cc1ccccc1F`, the kinetic solubility was determined as 4.2 µg/mL (≈ 17.3 µM).

In turn, `Cc1nc2ccc(NS(=O)(=O)c3ccc(F)c(F)c3F)cc2s1` returned a kinetic solubility of 50.7 µg/mL (≈ 141 µM). Compared with the last compound, the solubility kinetic is about 12-fold higher.

`COc1ccc(NC(=O)c2ccc(F)c(F)c2)c2ccccc12`: the kinetic solubility was less than 0.7 µg/mL.

As to `COc1ccc(Cc2nc(-c3ccncc3)no2)cc1`, the solubility (kinetic) came out at 35.5 µg/mL (≈ 133 µM).

`Cc1cc(C(F)(F)F)c2c(N)c(C(=O)NC3CC3)sc2n1` showed a kinetic solubility greater than 47.3 µg/mL.

In turn, `CCc1cccc(NS(=O)(=O)c2ccc3c(c2)n(C)c(=O)n3C)c1` came in with a kinetic solubility of 3.4 µg/mL (≈ 9.84 µM).

`CCOc1ccc(Cl)cc1S(=O)(=O)NC1CCCC1` showed a solubility (kinetic) of 38.8 µg/mL (≈ 128 µM).

`CN(C(=O)c1ccoc1)c1ccc2ccccc2c1` came in with a kinetic solubility of 29.1 µg/mL (≈ 116 µM).

The compound `C=CCOc1ccccc1NC(=O)CN1C(=O)CNC1=O` displayed a kinetic solubility greater than 43.4 µg/mL.

The compound `CN1CCCN(C(=O)c2ccc(Cl)s2)CC1` yielded a solubility (kinetic) greater than 38.8 µg/mL.

In turn, `COc1ccc(Nc2ccncc2[N+](=O)[O-])cc1` came in with a solubility (kinetic) greater than 36.8 µg/mL.

In turn, `COc1ccc(OC)c(S(=O)(=O)NCCc2csc(-c3cccnc3)n2)c1` registered a solubility (kinetic) of 59 µg/mL (≈ 145 µM).

Compound `COC(=O)c1ccc(CO/N=C/c2cccc([N+](=O)[O-])c2)cc1` returned a solubility (kinetic) of less than 0.3 µg/mL.

Compound `Cc1ccc(S(=O)(=O)N2CC(C)C(=O)CC2C)cc1` (centres undefined) came in with a solubility (kinetic) of 38.6 µg/mL (≈ 137 µM).

In turn, `CC(C)c1ccc(NC(=O)Cn2c(=O)oc3cccnc32)cc1` came in with a solubility (kinetic) of 7.7 µg/mL (≈ 24.7 µM).

Compound `COc1ccc(/C=C/C(=O)OCC(=O)N(C)CC(=O)Nc2ccc(C)cc2)c(OC)c1` registered a solubility (kinetic) of 4.4 µg/mL (≈ 10.3 µM).

Consider `CC(OC(=O)COc1ccccc1)C(=O)NC1CCCC1` (centres undefined), for which the solubility (kinetic) was greater than 43.7 µg/mL.
